Assay results reported in patent US10450318B2, “CXCR4 receptor antagonists” (BRISTOL-MYERS SQUIBB COMPANY, priority 2015, dated 2019).

Biological target: T1, CXCR4 receptors (Homo sapiens, UniProt P61073)
T1 construct: expressing endogenous CXCR4 receptors; endogenous in cells; host or cells: CCRF-CEM (human T lymphoblast cells)
Assay: CXCR4-CEM calcium flux assay, antagonist mode (inhibition of SDF-1α-induced calcium flux)
Assay type: cell-based
Details: inhibition of calcium flux induced by 4 nM SDF-1α in CCRF-CEM cells
Summary of the method: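 CCRF-CEM cells were preincubated with compound (0.5% DMSO) for 25 min at room temperature, then stimulated with 4 nM SDF-1α. The resulting calcium flux was recorded by FDSS for 90 sec. Percent inhibition was calculated against an internal control compound, and background-corrected EC50 values were derived.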

T1 sequence (P61073 whole entry): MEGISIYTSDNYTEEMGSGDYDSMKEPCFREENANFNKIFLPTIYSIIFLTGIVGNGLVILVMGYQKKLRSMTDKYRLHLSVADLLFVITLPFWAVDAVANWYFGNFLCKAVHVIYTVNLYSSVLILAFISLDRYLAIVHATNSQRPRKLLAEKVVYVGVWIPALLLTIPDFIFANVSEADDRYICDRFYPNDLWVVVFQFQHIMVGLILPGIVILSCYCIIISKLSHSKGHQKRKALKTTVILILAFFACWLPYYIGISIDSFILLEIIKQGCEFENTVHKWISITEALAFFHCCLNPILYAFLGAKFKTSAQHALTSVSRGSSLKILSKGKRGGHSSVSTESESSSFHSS

| Compound | IC50 [nM] |
| --- | --- |
| CN1CCCC2CN(c3nccc4nc(CN(C)[C@H]5CCCc6cccnc65)cn34)CC21 (stereo partly drawn) [Example 102, (8S)-N-methyl-N-((5-(1-methyloctahydro-6H-pyrrolo[3,4-b]pyridin-6-yl)imidazo[1,2-c]pyrimidin-2-yl)methyl)-5,6,7,8-tetrahydroquinolin-8-amine] | 210 |
| CN1CCCC2CN(c3nccc4nc(CN(C)[C@H]5CCCc6cccnc65)cn34)CC21 (stereo partly drawn) [Example 103, (8S)-N-methyl-N-((5-(1-methyloctahydro-6H-pyrrolo[3,4-b]pyridin-6-yl)imidazo[1,2-c]pyrimidin-2-yl)methyl)-5,6,7,8-tetrahydroquinolin-8-amine] | 260 |
| NCCCCN(Cc1cn2c(O)nccc2n1)[C@H]1CCCc2cccnc21 [Example 107, (S)-2-(((4-Aminobutyl)(5,6,7,8-tetrahydroquinolin-8-yl)amino)methyl)imidazo[1,2-c]pyrimidin-5-ol] | 29 |
| CN(Cc1nc2ccnc(N3CCN4CCC[C@H]4C3)n2c1CO)[C@H]1CCCc2cccnc21 [Example 108, (5-((S)-Hexahydropyrrolo[1,2-a]pyrazin-2(1H)-yl)-2-((methyl((S)-5,6,7,8-tetrahydroquinolin-8-yl)amino)methyl)imidazo[1,2-c]pyrimidin-3-yl)methanol] | 2.1 |
| (8S)-N-((5-(3-(dimethylamino)pyrrolidin- 1-yl)imidazo[1,2-c]pyrimidin-2- yl)methyl)-N-methyl-5,6,7,8- tetrahydroquinolin-8-amine [Example 75] | 11 |

More lines, now with the values ahead:

| IC50 [nM] | Compound |
| --- | --- |
| 220 | CN1CCC2CN(c3nccc4nc(CN(C)[C@H]5CCCc6cccnc65)cn34)CC21 (stereo partly drawn) [Example 101, (8S)-N-methyl-N-((5-(1-methylhexahydropyrrolo[3,4-b]pyrrol-5(1H)-yl)imidazo[1,2-c]pyrimidin-2-yl)methyl)-5,6,7,8-tetrahydroquinolin-8-amine] |
| 190 | COc1cc2nc(CN(C)[C@H]3CCCc4cccnc43)cn2c(N2CCNCC2)n1 [Example 104, (S)—N-((7-methoxy-5-(piperazin-1-yl)imidazo[1,2-c]pyrimidin-2-yl)methyl)-N-methyl-5,6,7,8-tetrahydroquinolin-8-amine] |
| 100 | COc1cc2nc(CN(C)[C@H]3CCCc4cccnc43)cn2c(N2CCN(C)CC2)n1 [Example 105, (S)—N-((7-Methoxy-5-(4-methylpiperazin-1-yl)imidazo[1,2-c]pyrimidin-2-yl)methyl)-N-methyl-5,6,7,8-tetrahydroquinolin-8-amine] |
| 370 | COc1nc(N2CCN(C)CC2)n2cc(CN(C)[C@H]3CCCc4cccnc43)nc2c1CO [Example 106, (S)-(7-Methoxy-2-((methyl(5,6,7,8-tetrahydroquinolin-8-yl)amino)methyl)-5-(4-methylpiperazin-1-yl)imidazo[1,2-c]pyrimidin-8-yl)methanol] |
